Measurements: publication PMC9851200, “Multiparameter phenotypic screening for endogenous TFEB and TFE3 translocation identifies novel chemical series modulating lysosome function” (Autophagy, 2022)

Experiments:
Format in all cases: binding
[1] = biological target: kinases (KINOMEscan panel) (Homo sapiens, UniProt P04626); conditions: kinase ERBB2; NEW KINOMEscan
[2] = biological target: kinases (KINOMEscan panel) (Homo sapiens, UniProt P31749); conditions: kinase AKT1; NEW KINOMEscan
[3] = biological target: kinases (KINOMEscan panel) (Homo sapiens, UniProt P42685); conditions: kinase FRK; NEW KINOMEscan
Chain of kinases (KINOMEscan panel) (Homo sapiens, UniProt P42685) (P42685 whole entry): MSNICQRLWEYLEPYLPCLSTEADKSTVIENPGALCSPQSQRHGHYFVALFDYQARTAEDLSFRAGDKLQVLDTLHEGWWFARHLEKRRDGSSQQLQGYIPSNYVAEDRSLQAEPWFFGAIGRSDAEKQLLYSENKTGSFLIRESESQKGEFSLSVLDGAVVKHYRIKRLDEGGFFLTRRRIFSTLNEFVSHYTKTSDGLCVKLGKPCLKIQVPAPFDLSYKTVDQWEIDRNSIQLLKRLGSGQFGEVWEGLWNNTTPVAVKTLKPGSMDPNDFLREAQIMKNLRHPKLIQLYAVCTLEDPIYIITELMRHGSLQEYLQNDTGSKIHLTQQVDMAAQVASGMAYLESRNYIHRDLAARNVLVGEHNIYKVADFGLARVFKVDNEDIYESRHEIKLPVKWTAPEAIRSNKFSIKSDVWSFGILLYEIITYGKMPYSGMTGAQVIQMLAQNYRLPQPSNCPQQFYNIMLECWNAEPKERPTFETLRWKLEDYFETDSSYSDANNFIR

[4] = biological target: kinases (KINOMEscan panel) (Homo sapiens, UniProt P51617); conditions: kinase IRAK1; NEW KINOMEscan
Chain of kinases (KINOMEscan panel) (Homo sapiens, UniProt P51617) (P51617 whole entry): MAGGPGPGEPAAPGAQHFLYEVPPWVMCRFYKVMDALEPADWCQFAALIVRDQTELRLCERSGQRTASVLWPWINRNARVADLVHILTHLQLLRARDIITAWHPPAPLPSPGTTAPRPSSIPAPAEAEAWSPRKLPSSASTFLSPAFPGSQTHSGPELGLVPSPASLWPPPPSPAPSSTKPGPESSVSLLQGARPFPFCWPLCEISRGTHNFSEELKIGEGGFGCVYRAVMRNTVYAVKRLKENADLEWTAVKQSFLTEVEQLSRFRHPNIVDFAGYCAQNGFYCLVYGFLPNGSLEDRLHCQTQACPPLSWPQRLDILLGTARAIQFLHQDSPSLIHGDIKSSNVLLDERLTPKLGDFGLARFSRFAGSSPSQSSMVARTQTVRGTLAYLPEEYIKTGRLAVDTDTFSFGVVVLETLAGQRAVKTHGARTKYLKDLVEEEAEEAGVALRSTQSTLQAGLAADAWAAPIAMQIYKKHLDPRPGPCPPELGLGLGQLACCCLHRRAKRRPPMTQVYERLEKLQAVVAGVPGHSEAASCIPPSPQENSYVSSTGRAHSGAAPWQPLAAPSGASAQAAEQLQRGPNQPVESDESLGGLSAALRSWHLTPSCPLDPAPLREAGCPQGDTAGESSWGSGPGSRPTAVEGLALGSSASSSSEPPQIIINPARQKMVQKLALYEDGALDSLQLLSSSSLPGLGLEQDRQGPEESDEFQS

[5] = biological target: T1, kinases (KINOMEscan panel) (Homo sapiens, UniProt Q56UN5); conditions: NEW KINOMEscan
T1 sequence (Q56UN5 1-1328): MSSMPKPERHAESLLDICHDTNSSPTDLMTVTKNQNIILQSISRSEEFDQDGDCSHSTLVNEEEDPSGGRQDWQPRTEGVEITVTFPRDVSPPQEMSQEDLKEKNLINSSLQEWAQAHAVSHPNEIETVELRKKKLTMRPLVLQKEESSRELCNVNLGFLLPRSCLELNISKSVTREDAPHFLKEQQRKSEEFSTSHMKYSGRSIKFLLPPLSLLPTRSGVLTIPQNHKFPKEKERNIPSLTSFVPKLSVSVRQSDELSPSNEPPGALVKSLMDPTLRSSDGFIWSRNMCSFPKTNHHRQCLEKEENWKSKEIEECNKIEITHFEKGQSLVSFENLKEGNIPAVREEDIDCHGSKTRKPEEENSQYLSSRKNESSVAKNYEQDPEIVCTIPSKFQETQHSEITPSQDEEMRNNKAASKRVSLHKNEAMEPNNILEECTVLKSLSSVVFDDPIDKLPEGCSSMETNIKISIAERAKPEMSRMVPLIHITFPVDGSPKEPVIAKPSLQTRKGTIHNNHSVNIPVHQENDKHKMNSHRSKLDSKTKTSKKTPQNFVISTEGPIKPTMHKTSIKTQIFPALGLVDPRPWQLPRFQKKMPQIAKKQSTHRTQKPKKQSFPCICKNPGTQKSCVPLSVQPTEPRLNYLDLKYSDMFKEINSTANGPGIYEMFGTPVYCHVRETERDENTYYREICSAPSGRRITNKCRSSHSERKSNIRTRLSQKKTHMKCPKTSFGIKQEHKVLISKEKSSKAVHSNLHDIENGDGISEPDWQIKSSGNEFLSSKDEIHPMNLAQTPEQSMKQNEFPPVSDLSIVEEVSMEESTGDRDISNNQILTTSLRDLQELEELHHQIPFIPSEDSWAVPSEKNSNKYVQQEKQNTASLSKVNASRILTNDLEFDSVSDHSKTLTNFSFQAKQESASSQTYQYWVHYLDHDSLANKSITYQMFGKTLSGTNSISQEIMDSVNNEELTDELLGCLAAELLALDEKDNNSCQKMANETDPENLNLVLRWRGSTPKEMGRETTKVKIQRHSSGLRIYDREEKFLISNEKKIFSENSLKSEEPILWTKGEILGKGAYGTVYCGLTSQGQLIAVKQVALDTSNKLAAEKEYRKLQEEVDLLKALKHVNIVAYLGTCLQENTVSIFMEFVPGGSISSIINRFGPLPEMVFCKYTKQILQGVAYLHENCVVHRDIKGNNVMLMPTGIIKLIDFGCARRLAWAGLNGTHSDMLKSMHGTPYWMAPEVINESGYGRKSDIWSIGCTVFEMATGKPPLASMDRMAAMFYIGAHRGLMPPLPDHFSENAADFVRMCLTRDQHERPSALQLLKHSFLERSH

[6] = biological target: T2, kinases (KINOMEscan panel) (Homo sapiens, UniProt Q8WTQ7); conditions: kinase GRK7; NEW KINOMEscan
T2 sequence (Q8WTQ7 1-553): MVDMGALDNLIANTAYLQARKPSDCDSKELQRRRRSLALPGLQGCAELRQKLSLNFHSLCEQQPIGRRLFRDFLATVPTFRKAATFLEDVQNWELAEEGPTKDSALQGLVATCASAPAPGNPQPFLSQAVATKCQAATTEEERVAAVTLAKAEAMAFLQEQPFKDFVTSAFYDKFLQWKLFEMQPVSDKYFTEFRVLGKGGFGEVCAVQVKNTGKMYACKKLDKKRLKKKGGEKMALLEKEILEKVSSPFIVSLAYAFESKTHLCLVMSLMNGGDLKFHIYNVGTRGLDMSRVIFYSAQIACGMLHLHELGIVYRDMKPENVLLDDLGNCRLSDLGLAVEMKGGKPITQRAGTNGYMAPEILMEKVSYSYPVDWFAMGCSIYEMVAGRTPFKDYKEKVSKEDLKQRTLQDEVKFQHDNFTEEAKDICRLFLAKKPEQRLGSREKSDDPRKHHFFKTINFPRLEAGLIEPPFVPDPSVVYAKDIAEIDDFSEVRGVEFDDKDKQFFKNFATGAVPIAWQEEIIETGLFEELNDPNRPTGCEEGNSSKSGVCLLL

[7] = biological target: kinases (KINOMEscan panel) (Homo sapiens, UniProt Q9UEW8); conditions: NEW KINOMEscan
[8] = biological target: kinases (KINOMEscan panel) (Homo sapiens, UniProt Q9UKE5); conditions: TNIK; NEW KINOMEscan
Chain of kinases (KINOMEscan panel) (Homo sapiens, UniProt Q9UKE5) (Q9UKE5 whole entry): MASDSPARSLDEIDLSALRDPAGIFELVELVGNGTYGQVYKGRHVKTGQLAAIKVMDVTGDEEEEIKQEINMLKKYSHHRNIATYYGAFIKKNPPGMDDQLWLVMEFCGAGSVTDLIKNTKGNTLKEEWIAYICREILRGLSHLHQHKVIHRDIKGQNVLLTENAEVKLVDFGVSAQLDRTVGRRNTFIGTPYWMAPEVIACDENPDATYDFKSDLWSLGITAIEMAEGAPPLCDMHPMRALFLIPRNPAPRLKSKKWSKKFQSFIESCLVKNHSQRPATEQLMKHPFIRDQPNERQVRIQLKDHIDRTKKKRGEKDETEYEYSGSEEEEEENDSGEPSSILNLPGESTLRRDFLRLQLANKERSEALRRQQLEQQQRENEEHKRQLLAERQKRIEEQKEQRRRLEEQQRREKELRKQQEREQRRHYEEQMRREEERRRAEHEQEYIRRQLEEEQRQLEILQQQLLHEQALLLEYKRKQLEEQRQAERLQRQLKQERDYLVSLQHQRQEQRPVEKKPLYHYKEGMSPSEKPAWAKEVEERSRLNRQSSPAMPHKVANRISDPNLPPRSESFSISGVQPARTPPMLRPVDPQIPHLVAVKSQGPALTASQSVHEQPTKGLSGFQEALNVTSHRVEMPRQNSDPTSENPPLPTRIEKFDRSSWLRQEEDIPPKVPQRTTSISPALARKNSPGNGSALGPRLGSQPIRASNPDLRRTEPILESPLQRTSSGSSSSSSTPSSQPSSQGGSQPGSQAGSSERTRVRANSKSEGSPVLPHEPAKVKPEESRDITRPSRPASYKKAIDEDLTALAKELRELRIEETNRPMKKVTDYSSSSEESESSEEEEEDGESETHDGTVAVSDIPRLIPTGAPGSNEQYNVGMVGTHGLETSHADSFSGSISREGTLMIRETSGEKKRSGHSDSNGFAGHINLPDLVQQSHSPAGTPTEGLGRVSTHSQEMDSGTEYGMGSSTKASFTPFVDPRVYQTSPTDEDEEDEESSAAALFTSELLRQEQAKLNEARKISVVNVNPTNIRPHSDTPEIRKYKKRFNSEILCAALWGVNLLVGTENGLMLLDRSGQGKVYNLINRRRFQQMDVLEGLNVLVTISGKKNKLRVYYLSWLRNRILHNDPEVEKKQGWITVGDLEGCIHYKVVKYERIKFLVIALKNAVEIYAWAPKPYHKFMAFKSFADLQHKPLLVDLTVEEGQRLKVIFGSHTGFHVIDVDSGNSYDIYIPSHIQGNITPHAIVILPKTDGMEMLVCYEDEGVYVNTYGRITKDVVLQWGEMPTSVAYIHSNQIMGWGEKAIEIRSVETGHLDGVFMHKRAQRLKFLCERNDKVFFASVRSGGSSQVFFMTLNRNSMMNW

Chain of kinases (KINOMEscan panel) (Homo sapiens, UniProt P04626) (P04626 23-1255): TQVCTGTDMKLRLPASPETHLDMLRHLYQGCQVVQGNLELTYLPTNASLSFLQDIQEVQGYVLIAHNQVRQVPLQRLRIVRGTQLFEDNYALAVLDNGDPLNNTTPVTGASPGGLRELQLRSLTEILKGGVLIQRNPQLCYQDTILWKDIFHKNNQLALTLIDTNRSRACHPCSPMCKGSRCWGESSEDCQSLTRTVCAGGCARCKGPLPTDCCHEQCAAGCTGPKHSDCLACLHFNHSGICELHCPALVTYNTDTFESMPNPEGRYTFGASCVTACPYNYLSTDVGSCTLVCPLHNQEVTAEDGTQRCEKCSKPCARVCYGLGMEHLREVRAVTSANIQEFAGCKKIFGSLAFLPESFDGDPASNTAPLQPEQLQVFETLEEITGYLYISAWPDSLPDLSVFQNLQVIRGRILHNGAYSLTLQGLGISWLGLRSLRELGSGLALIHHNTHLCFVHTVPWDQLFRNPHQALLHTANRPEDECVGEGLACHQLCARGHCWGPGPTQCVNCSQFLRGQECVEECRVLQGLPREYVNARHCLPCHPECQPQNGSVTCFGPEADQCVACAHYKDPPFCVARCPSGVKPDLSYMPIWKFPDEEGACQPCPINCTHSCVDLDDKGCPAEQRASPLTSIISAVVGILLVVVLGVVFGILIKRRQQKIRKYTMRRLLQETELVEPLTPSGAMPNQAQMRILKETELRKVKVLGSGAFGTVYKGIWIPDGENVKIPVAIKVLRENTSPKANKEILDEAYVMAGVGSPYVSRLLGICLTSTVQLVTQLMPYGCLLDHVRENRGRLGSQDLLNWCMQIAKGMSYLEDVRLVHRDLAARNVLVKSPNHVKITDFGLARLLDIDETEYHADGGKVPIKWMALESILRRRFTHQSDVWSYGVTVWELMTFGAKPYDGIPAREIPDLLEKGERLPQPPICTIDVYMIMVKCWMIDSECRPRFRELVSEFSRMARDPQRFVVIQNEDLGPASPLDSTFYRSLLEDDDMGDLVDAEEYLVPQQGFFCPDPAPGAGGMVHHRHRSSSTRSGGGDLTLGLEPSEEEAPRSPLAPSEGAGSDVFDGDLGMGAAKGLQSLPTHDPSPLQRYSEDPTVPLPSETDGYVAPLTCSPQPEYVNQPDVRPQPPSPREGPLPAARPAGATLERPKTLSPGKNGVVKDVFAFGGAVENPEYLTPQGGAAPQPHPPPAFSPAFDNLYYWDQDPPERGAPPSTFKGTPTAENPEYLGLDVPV
Chain of kinases (KINOMEscan panel) (Homo sapiens, UniProt P31749) (P31749 whole entry): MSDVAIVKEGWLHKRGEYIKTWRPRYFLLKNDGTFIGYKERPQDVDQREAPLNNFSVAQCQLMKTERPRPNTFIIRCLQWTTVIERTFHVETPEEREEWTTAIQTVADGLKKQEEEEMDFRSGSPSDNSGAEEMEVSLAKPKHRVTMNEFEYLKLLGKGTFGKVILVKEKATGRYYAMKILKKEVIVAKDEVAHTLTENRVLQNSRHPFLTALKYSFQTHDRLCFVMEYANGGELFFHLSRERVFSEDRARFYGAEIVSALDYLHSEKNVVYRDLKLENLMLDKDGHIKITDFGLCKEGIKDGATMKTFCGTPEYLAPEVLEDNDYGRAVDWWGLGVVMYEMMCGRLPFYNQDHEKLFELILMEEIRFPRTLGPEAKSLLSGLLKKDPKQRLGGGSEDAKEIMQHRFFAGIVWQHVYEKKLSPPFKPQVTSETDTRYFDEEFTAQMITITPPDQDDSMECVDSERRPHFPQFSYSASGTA

Structure (SMILES) | KINOMEscan ERBB2 [1] | KINOMEscan AKT1 [2] | KINOMEscan FRK [3] | KINOMEscan IRAK1 [4] | KINOMEscan MAP3K19 [5] | KINOMEscan GRK7 [6] | KINOMEscan STK39 [7] | KINOMEscan TNIK [8]
Cc1cccc(-c2nc(Nc3ccc4nn(C)cc4c3)c3ccccc3n2)n1 [NK167] | 0 | 10 | 0 | 0 | 0 | 0 | 11 | 0
Cc1cccc(-c2nc(N(C)c3ccc4ncsc4c3)c3ccccc3n2)n1 [NK-161] | 0 | 17 | 0 | 0 | 0 | 5 | 0 | 0
